# Reference: patent publication EP4227307A1 (Genzyme Corporation, priority 2022, dated 2023)
# Counter-ions that a name gives are not always drawn.
# Molecular target: T1, human recombinant 6His-Nterm SHP2 full-length (Thr2-Arg593) (Homo sapiens, UniProt Q06124)
# T1 construct: 6His-Nterm SHP2 full-length (Thr2-Arg593, R&D system); 6His (N); purchased R&D system
# T1 sequence (Q06124 2-593): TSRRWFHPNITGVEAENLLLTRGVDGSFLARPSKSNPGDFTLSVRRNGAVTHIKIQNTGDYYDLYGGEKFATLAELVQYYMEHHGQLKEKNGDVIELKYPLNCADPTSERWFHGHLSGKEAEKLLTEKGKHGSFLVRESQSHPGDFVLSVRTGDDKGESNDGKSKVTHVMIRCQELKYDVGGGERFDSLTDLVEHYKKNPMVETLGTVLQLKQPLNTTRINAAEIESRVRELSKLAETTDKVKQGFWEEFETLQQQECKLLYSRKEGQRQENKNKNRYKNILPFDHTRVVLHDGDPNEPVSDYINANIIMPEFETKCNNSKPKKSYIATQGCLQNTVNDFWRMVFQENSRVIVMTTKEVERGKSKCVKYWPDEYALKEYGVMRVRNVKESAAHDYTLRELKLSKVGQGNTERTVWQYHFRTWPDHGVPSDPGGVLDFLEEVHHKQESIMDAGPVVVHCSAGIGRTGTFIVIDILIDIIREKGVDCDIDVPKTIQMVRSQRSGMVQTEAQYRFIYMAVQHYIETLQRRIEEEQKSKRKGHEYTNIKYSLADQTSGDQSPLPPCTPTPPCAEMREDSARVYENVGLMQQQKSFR
# Assay: SHP2 Phosphatase Assay (DiFMUP fluorescence)
# Format: biochemical
# Conditions: SHP2 0.2 nM pre-incubated with 100 nM bi-phosphorylated activating peptide; compound 1000-0.05 nM, 30 min pre-incubation; DiFMUP 20 µM, 45 min, room temperature; 10-concentration dose-response
# How it was run: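 SHP2 (0.2 nM) preactivated ≥10 min with 100 nM bis-phosphorylated peptide, then 30 min with compound (10 concentrations, 1000–0.05 nM) at room temperature, pH 7.2 HEPES buffer with DTT. DiFMUP (20 µM, added solution) reacted 45 min, pervanadate-stopped; fluorescence 350/450 nm. IC50 by 4-parameter logistic fit.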
row,IC50 [nM],SMILES
1,15,"Cc1nc(N2CCC3(CC2)Cc2ncccc2[C@H]3N)c2ccnn2c1Sc1cccnc1C(F)(F)F [Compound 230, (5S)-1'-(6-methyl-7-((2-(trifluoromethyl)pyridin-3-yl)thio)pyrazolo[1,5-a]pyrazin-4-yl)-5,7-dihydrospiro[cyclopenta[b]pyridine-6,4'-piperidin]-5-amine]"
2,11,"Cc1nc(N2CCC3(CC2)Cc2cc(CO)ncc2[C@H]3N)c2ccnn2c1-c1ccccc1F [Compound 59, [(7S)-7-amino-1'-[7-(2-fluorophenyl)-6-methyl-pyrazolo[1,5-a]pyrazin-4-yl]spiro[5,7-dihydrocyclopenta[c]pyridine-6,4'-piperidine]-3-yl]methanol]"
3,83,"Cc1nc(N2CCC3(CC2)Cc2ncccc2[C@H]3N)c2ccnn2c1C1=CCOCC1 [Compound 196, (5S)-1'-[7-(3,6-dihydro-2H-pyran-4-yl)-6-methyl-pyrazolo[1,5-a]pyrazin-4-yl]spiro[5,7-dihydrocyclopenta[b]pyridine-6,4'-piperidine]-5-amine]"
4,3,"Cc1nc(N2CCC3(CC2)Cc2ncccc2[C@H]3N)c2ccnn2c1-c1ccc(Cl)s1 [Compound 53, (5S)-1'-[7-(5-chloro-2-thienyl)-6-methyl-pyrazolo[1,5-a]pyrazin-4-yl]spiro[5,7-dihydrocyclopenta[b]pyridine-6,4'-piperidine]-5-amine]"
5,7,"Cc1nccc(-c2c(C)nc(N3CCC4(CC3)Cc3ccncc3[C@H]4N)c3ccnn23)c1F [Compound 140, (7S)-1'-[7-(3-fluoro-2-methyl-4-pyridyl)-6-methyl-pyrazolo[1,5-a]pyrazin-4-yl]spiro[5,7-dihydrocyclopenta[c]pyridine-6,4'-piperidine]-7-amine]"
6,10,"COc1cccc2c1CC1(CCN(c3nc(C)c(-c4ccccc4F)n4nccc34)CC1)[C@@H]2N [Compound 109, (1S)-1'-[7-(2-fluorophenyl)-6-methyl-pyrazolo[1,5-a]pyrazin-4-yl] -4-methoxy-spiro[indane-2,4'-piperidine]-1-amine]"
7,11,"Cc1nc(N2CCC3(CC2)Cc2c(F)cccc2[C@H]3N)c2ccnn2c1-c1cnn2ccccc12 [Compound 96, (1S)-4-fluoro-1'-(6-methyl-7-pyrazolo[1,5-a]pyridin-3-yl-pyrazolo[1,5-a]pyrazin-4-yl)spiro[indane-2,4'-piperidine]-1-amine formate]"
8,6,"COc1cc2c(cn1)CC1(CCN(c3nc(C)c(-c4ccnc(C)c4Cl)n4nccc34)CC1)[C@@H]2N [Compound 137, (5S)-1'-[7-(3-chloro-2-methyl-4-pyridyl)-6-methyl-pyrazolo[1,5-a]pyrazin-4-yl]-3-methoxy-spiro[5,7-dihydrocyclopenta[c]pyridine-6,4'-piperidine]-5-amine]"
9,4,"Cc1nc(N2CCC3(CC2)Cc2ccncc2[C@H]3N)c2ccnn2c1-c1ccccc1 [Compound 138, (7S)-1'-(6-methyl-7-phenyl-pyrazolo[1,5-a]pyrazin-4-yl)spiro[5,7-dihydrocyclopenta[c]pyridine-6,4'-piperidine]-7-amine]"
10,> 1000,"Cc1nc(N2CCC3(CC2)Cc2ncccc2[C@H]3N)c2ccnn2c1-c1cccn(C)c1=O [Compound 227, 3-[4-[(5S)-5-aminospiro[5,7-dihydrocyclopenta[b]pyridine-6,4'-piperidine]-1'-yl]-6-methyl-pyrazolo[1,5-a]pyrazin-7-yl]-1-methyl-pyridin-2-one]"
11,> 1000,"Cc1nn(C)c(C)c1-c1c(C)nc(N2CCC3(CC2)Cc2ncccc2[C@H]3N)c2ccnn12 [Compound 33, (5S)-1'-[6-methyl-7-(1,3,5-trimethylpyrazol-4-yl)pyrazolo[1,5-a]pyrazin-4-yl]spiro[5,7-dihydrocyclopenta[b]pyridine-6,4'-piperidine]-5-amine]"
12,26,"Cc1nc(N2CCC3(CC2)Cc2ncccc2[C@H]3N)c2ccnn2c1-c1ccc2ncccc2c1 [Compound 202, (5S)-1'-[6-methyl-7-(6-quinolyl)pyrazolo[1,5-a]pyrazin-4-yl]spiro[5,7-dihydrocyclopenta[b]pyridine-6,4'-piperidine]-5-amine]"
13,154,"Cc1nn(C)cc1-c1c(C)nc(N2CCC3(CC2)Cc2ncccc2[C@H]3N)c2ccnn12 [Compound 47, (5S)-1'-[7-(1,3-dimethylpyrazol-4-yl)-6-methyl-pyrazolo[1,5-a]pyrazin-4-yl]spiro [5,7-dihydrocyclopenta[b]pyridine-6,4'-piperidine]-5-amine]"
14,8,"COc1cc2c(cn1)[C@@H](N)C1(CCN(c3nc(C)c(-c4ccnc(C)c4Cl)n4nccc34)CC1)C2 [Compound 121, (7S)-1'-[7-(3-chloro-2-methyl-4-pyridyl)-6-methyl-pyrazolo[1,5-a]pyrazin-4-yl]-3-methoxy-spiro [5,7-dihydrocyclopenta[c]pyridine-6,4'-piperidine]-7-amine]"
15,14,"Cc1nc(N2CCC3(CC2)Cc2ncccc2[C@H]3N)c2ccnn2c1-c1cncc(Cl)c1 [Compound 199, (5S)-1'-[7-(5-chloro-3-pyridyl)-6-methyl-pyrazolo[1,5-a]pyrazin-4-yl]spiro[5,7-dihydrocyclopenta[b]pyridine-6,4'-piperidine]-5-amine]"

row,SMILES,IC50 [nM]
1,"Cc1nc2c(s1)CC1(CCN(c3nc(C)c(-c4ccnc(C)c4Cl)n4nccc34)CC1)[C@@H]2N [Compound 105, (4S)-1'-[7-(3-chloro-2-methyl-4-pyridyl)-6-methyl-pyrazolo[1,5-a]pyrazin-4-yl]-2-methyl-spiro[4,6-dihydrocyclopenta[d]thiazole-5,4'-piperidine]-4-amine hydrochloride]",6
2,"COc1cccc(-c2cnc(N3CCC4(CC3)Cc3ncccc3[C@H]4N)c3ccnn23)c1F [Compound 85, (5S)-1'-[7-(2-fluoro-3-methoxyphenyl)pyrazolo[1,5-a]pyrazin-4-yl]spiro[5,7-dihydrocyclopenta[b]pyridine-6,4'-piperidine] -5-amine hydrochloride]",27
3,"Cc1nc(N2CCC3(CC2)Cc2ncccc2[C@H]3N)c2ccnn2c1-c1cncs1 [Compound 157, (5S)-1'-(6-methyl-7-thiazol-5-yl-pyrazolo[1,5-a]pyrazin-4-yl)spiro[5,7-dihydrocyclopenta[b]pyridine-6,4'-piperidine] -5-amine hydrochloride]",72
4,"Cc1nc(N2CCC3(CC2)Cc2ncc(F)cc2[C@H]3N)c2ccnn2c1-c1ccc2nccnc2c1Cl [Compound 79, (5S)-1'-[7-(5-chloroquinoxalin-6-yl)-6-methyl-pyrazolo[1,5-a]pyrazin-4-yl]-3-fluoro-spiro[5,7-dihydrocyclopenta[b]pyridine-6,4'-piperidine]-5-amine hydrochloride]",10
5,"COc1ccc2c(c1)[C@@H](N)C1(CCN(c3nc(C)c(-c4cc(C)nn4C)n4nccc34)CC1)C2 [Compound 123, (1S)-1'-[7-(2,5-dimethylpyrazol-3-yl)-6-methyl-pyrazolo[1,5-a]pyrazin-4-yl]-6-methoxy-spiro[indane-2,4'-piperidine]-1-amine hydrochloride]",9
6,"Cc1nc2c(s1)[C@@H](N)C1(CCN(c3nc(C)c(-c4ccc5nccnc5c4Cl)n4nccc34)CC1)C2 [Compound 81, (6S)-1'-[7-(5-chloroquinoxalin-6-yl)-6-methyl-pyrazolo[1,5-a]pyrazin-4-yl]-2-methyl-spiro [4,6-dihydrocyclopenta[d]thiazole-5,4'-piperidine]-6-amine hydrochloride]",4
